Laboratory results: ChEMBL document CHEMBL5375989, “Pioneering 4,11-Dioxo-4,11-dihydro-1H-anthra[2,3-d]imidazol-3-ium Compounds as Promising Survivin Inhibitors by Targeting ILF3/NF110 for Cancer Therapy” (J Med Chem, 2023)

Assays:
[1] = Antiproliferative activity against mouse L929 cells assessed as inhibition of cell growth measured after 48 hrs by MTT assay; format: toxicity, cell-based; conditions: mouse, L929 cells
A549 = experiment: cells; conditions: Homo sapiens, A549, 48 h
Description: Antiproliferative activity against human A549 cells assessed as inhibition of cell growth measured after 48 hrs by MTT assay

TE-1 = experiment: cells; conditions: Homo sapiens, TE-1, 48 h
Description: Antiproliferative activity against human TE-1 cells assessed as inhibition of cell growth measured after 48 hrs by MTT assay

5637 = experiment: cells; conditions: Homo sapiens, 5637, 48 h
Description: Antiproliferative activity against human 5637 cells assessed as inhibition of cell growth measured after 48 hrs by MTT assay

C#CCn1c2c([n+](C)c1C)C(=O)c1cc3ccccc3cc1C2=O
IC50 at 48 h [1]: 23.8 µM
IC50 (A549): 0.25 µM
IC50 (TE-1): 0.39 µM
IC50 5637: 1.71 µM

C[n+]1cn(Cc2ccccc2F)c2c1C(=O)c1cc3ccccc3cc1C2=O
IC50 at 48 h [1]: 17.7 µM
IC50 (A549): 0.38 µM
IC50 (TE-1): 0.19 µM
IC50 5637: 0.47 µM

CCCCn1c2c([n+](C)c1C)C(=O)c1cc3ccccc3cc1C2=O
IC50 at 48 h [1]: 13.6 µM
IC50 (A549): 0.09 µM
IC50 (TE-1): 0.09 µM
IC50 5637: 0.33 µM

CCCn1c2c([n+](C)c1C)C(=O)c1cc3ccccc3cc1C2=O
IC50 at 48 h [1]: 22.1 µM
IC50 (A549): 1.22 µM
IC50 (TE-1): 0.38 µM
IC50 5637: 0.58 µM

CCn1c[n+](CC)c2c1C(=O)c1cc3ccccc3cc1C2=O
IC50 at 48 h [1]: 63.9 µM
IC50 (A549): 0.26 µM
IC50 (TE-1): 0.18 µM
IC50 5637: 0.52 µM

Cc1n(CC(C)C)c2c([n+]1C)C(=O)c1cc3ccccc3cc1C2=O
IC50 at 48 h [1]: 15.4 µM
IC50 (A549): 0.06 µM
IC50 (TE-1): 0.08 µM
IC50 5637: 0.41 µM

COCCOCCn1c[n+](C)c2c1C(=O)c1cc3ccccc3cc1C2=O
IC50 at 48 h [1]: > 100 µM
IC50 (A549): 0.21 µM
IC50 (TE-1): 0.07 µM
IC50 5637: 0.18 µM

Cc1n(C(C)C)c2c([n+]1C)C(=O)c1cc3ccccc3cc1C2=O
IC50 at 48 h [1]: 17.9 µM
IC50 (A549): 0.09 µM
IC50 (TE-1): 0.15 µM
IC50 5637: 0.06 µM

CCC(C)n1c[n+](C)c2c1C(=O)c1cc3ccccc3cc1C2=O (stereo unspecified)
IC50 at 48 h [1]: > 100 µM
IC50 (A549): 5.65 µM
IC50 (TE-1): 2.33 µM
IC50 5637: 2.76 µM

CC(C)CCn1c[n+](C)c2c1C(=O)c1cc3ccccc3cc1C2=O
IC50 at 48 h [1]: > 16.4 µM
IC50 (A549): 9.3 µM
IC50 (TE-1): 0.91 µM
IC50 5637: 1.78 µM

CCC(C)Cn1c[n+](C)c2c1C(=O)c1cc3ccccc3cc1C2=O (stereo unspecified)
IC50 at 48 h [1]: 83.9 µM
IC50 (A549): 8.4 µM
IC50 (TE-1): 0.7 µM
IC50 5637: 1.51 µM

CCCCn1c[n+](C)c2c1C(=O)c1cc3ccccc3cc1C2=O
IC50 at 48 h [1]: 65.1 µM
IC50 (A549): 0.67 µM
IC50 (TE-1): 59 µM
IC50 5637: 0.59 µM

C[n+]1cn(Cc2cccc(F)c2)c2c1C(=O)c1cc3ccccc3cc1C2=O
IC50 at 48 h [1]: 22.8 µM
IC50 (A549): 0.91 µM
IC50 (TE-1): 0.27 µM
IC50 5637: 0.55 µM

CCn1c[n+](C)c2c1C(=O)c1cc3ccccc3cc1C2=O
IC50 at 48 h [1]: 49.3 µM
IC50 (A549): 0.24 µM
IC50 (TE-1): 0.08 µM
IC50 5637: 0.1 µM

Cc1n(Cc2cccc(F)c2)c2c([n+]1C)C(=O)c1cc3ccccc3cc1C2=O
IC50 at 48 h [1]: 45.9 µM
IC50 (A549): 0.39 µM
IC50 (TE-1): 0.16 µM
IC50 5637: 0.89 µM

C[n+]1cn(Cc2ccccc2)c2c1C(=O)c1cc3ccccc3cc1C2=O
IC50 at 48 h [1]: 37.1 µM
IC50 (A549): 0.49 µM
IC50 (TE-1): 0.11 µM
IC50 5637: 0.41 µM

Cc1n(Cc2ccccc2F)c2c([n+]1C)C(=O)c1cc3ccccc3cc1C2=O
IC50 at 48 h [1]: 12.6 µM
IC50 (A549): 0.46 µM
IC50 (TE-1): 0.55 µM
IC50 5637: 0.53 µM

CCC(C)Cn1c2c([n+](C)c1C)C(=O)c1cc3ccccc3cc1C2=O (stereo unspecified)
IC50 at 48 h [1]: 43.5 µM
IC50 (A549): 0.37 µM
IC50 (TE-1): 0.68 µM
IC50 5637: 1.36 µM

CC(C)=CCn1c2c([n+](C)c1C)C(=O)c1cc3ccccc3cc1C2=O
IC50 at 48 h [1]: 5.52 µM
IC50 (A549): 0.06 µM
IC50 (TE-1): 0.07 µM
IC50 5637: 0.4 µM

Cc1n(CC#N)c2c([n+]1C)C(=O)c1cc3ccccc3cc1C2=O
IC50 at 48 h [1]: 9.57 µM
IC50 (A549): 0.46 µM
IC50 (TE-1): 0.67 µM
IC50 5637: 0.72 µM

COc1ccc(Cn2c[n+](C)c3c2C(=O)c2cc4ccccc4cc2C3=O)cc1
IC50 at 48 h [1]: 64.4 µM
IC50 (A549): 0.86 µM
IC50 (TE-1): 0.08 µM
IC50 5637: 0.8 µM

Cc1n(Cc2ccc(F)cc2)c2c([n+]1C)C(=O)c1cc3ccccc3cc1C2=O
IC50 at 48 h [1]: 76.8 µM
IC50 (A549): 0.64 µM
IC50 (TE-1): 0.25 µM
IC50 5637: 1.36 µM

Cc1n(Cc2ccccc2)c2c([n+]1C)C(=O)c1cc3ccccc3cc1C2=O
IC50 at 48 h [1]: 30.6 µM
IC50 (A549): 0.88 µM
IC50 (TE-1): 0.52 µM
IC50 5637: 0.78 µM

C[n+]1cn(Cc2ccc(F)cc2)c2c1C(=O)c1cc3ccccc3cc1C2=O
IC50 at 48 h [1]: 41.1 µM
IC50 (A549): 0.71 µM
IC50 (TE-1): 0.13 µM
IC50 5637: 0.52 µM
